The subject of one data set is uterus. On the set-up: species or system rat (female Sprague Dawley, ovariectomized). Conditions: rat, in vivo, po, 0.1 mg/kg/day. How it is done:
(§1) In the examples illustrating the methods, a postmenopausal model was used in which effects of different treatments upon circulating lipids were determined.
(§2) Seventy-five day old female Sprague Dawley rats (weight range of 200 to 225 g) were obtained from Charles River Laboratories (Portage, Mich.). The animals were either bilaterally ovariectomized (OVX) or exposed to a sham surgical procedure at Charles River Laboratories, and then shipped after one week. Upon arrival, they were housed in metal hanging cages in groups of 3 or 4 per cage and had ad libitum access to food (calcium content approximately 0.5%) and water for one week. Room temperature was maintained at 22.2°±1.70° C. with a minimum relative humidity of 40%. The photoperiod in the room was 12 hours light and 12 hours dark.
Dosing Regimen Tissue Collection. After a one week acclimation period (therefore, two weeks post-OVX) daily dosing with test compound was initiated. 17α-ethynyl estradiol or the test compound were given orally, unless otherwise stated, as a suspension in 1% carboxymethylcellulose or dissolved in 20% cyclodextrin. Animals were dosed daily for 4 days. […] The animals were then sacrificed by asphyxiation with CO2, the uterus was removed through a midline incision, and a wet uterine weight was determined. […]

In another data set the test system is Eosinophil peroxidase. Set-up: species or system rat (female Sprague Dawley, ovariectomized). To be noted: rat, in vivo.
Source text: as §2
Dosing Regimen Tissue Collection. […] The animals were then sacrificed by asphyxiation with CO2, the uterus was removed through a midline incision, and a wet uterine weight was determined.
Uterine Eosinophil Peroxidase (EPO) Assay. […] Upon addition of 0.01% hydrogen peroxide and 10 mM O-phenylenediamine (final concentrations) in Tris buffer, increase in absorbance was monitored for one minute at 450 nm. […] The maximal velocity of a 15 second interval was determined over the initial, linear portion of the reaction curve.
As is expressed in the data below, estrogenicity also was assessed by evaluating the adverse response of eosinophil infiltration into the uterus. […]

In another data set the test system is Serum cholesterol. Nature of the data set: Serum cholesterol analysis in ovariectomized rats (4-day oral dosing). Format: in vivo, rat (female Sprague Dawley. To be noted: for Serum Cholest. % Dec. (decrease versus ovariectomized controls): daily for 4 days, * p < .05. How it is done: as §1, §2
Dosing Regimen Tissue Collection. After a one week acclimation period (therefore, two weeks post-OVX) daily dosing with test compound was initiated. 17α-ethynyl estradiol or the test compound were given orally, unless otherwise stated, as a suspension in 1% carboxymethylcellulose or dissolved in 20% cyclodextrin. Animals were dosed daily for 4 days. Following the dosing regimen, animals were weighed and anesthetized with a ketamine:xylazine (2:1, V:V) mixture and a blood sample was collected by cardiac puncture. The animals were then sacrificed by asphyxiation with CO2, the uterus was removed through a midline incision, and a wet uterine weight was determined.
Cholesterol Analysis. Blood samples were allowed to clot at room temperature for 2 hours, and serum was obtained following centrifugation for 10 minutes at 3000 rpm. Serum cholesterol was determined using a Boehringer Mannheim Diagnostics high performance cholesterol assay. Briefly the cholesterol was oxidized to cholest-4-en-3-one and hydrogen peroxide. The hydrogen peroxide was then reacted with phenol and 4-aminophenazone in the presence of peroxidase to produce a p-quinone imine dye, which was read spectrophotemetrically at 500 nm. Cholesterol concentration was then calculated against a standard curve.
Data presented in Table 1 below show comparative results among ovariectomized rats, rats treated with 17α-ethynyl estradiol (EE2; an orally available form of estrogen), and rats treated with certain compounds of the instant invention. […] This uterine response to estrogen is well recognized in the art.
The data presented in Table 1 below reflects the response of 5 to 6 rats per treatment.

A further data set deals with femur density. In words: Osteoporosis Test Procedure (femur density, ovariectomized rats). Format: in vivo, rat. To be noted: orally administered. The protocol:
Following the General Preparation Procedure, infra, the rats are treated daily for 35 days (6 rats per treatment group) and sacrificed by carbon dioxide asphyxiation on the 36th day. The 35 day time period is sufficient to allow maximal reduction in bone density, measured as described herein. At the time of sacrifice, the uteri are removed, dissected free of extraneous tissue, and the fluid contents are expelled before determination of wet weight in order to confirm estrogen deficiency associated with complete ovariectomy. […] The uteri are then placed in 10% neutral buffered formalin to allow for subsequent histological analysis. The right femurs are excised and digitilized x-rays generated and analyzed by an image analysis program (NIH image) at the distal metaphysis. The proximal aspect of the tibiae from these animals are also scanned by quantitative computed tomography. In accordance with the above procedures, compounds of the instant invention and ethynyl estradiol (EE2) in 20% hydroxypropyl β-cyclodextrin are orally administered to test animals. Distal femur metaphysis and proximal tibiae data are compared to intact and ovariectomized test animals. Results are reported as percent protection relative to ovariectomy. Ovariectomy of the test animals causes a significant reduction in femur density compared to intact, vehicle treated controls. […]

[1] abbreviates: 0.1 mg/kg PO, negative = increase.

The structures appear in SMILES notation.

As to `C#C[C@]1(O)CC[C@H]2[C@@H]3CCc4cc(O)ccc4[C@H]3CC[C@@]21C` [EE2, 17α-ethynyl estradiol, reference compound], in the data set with uterus, the “uterine weight (in words)” value is given as “substantially greater than the uterine weight of ovariectomized test animals”. In the data set with Eosinophil peroxidase, the “Uterine Eosinophil (Vmax), eosinophil peroxidase” value is 212.4 and the “eosinophil infiltration into the uterus (in words)” value is reported as “substantial, expected increase in eosinophil infiltration”. In the data set with Serum cholesterol (setting [1]), the “Serum Cholest. % Dec. (decrease versus ovariectomized controls)” value was found to be 76.6%. Further, the “serum cholesterol (in words)” value with Serum cholesterol (oral, versus ovariectomized control animals, EE2 at 0.1 mg/kg/day) is on record as “caused a decrease in serum cholesterol”. Further, the “loss of femur density after ovariectomy (in words)” value in the data set with femur density was “prevents this loss”.

Turning to `CC(C)c1sc2ccccc2c1Oc1ccc(OCCN2CCCCC2)cc1.Cl` [Example 4, 3-[4-[2-(1-Piperidinyl)ethoxy]phenoxy]-2-(2-propyl]benzo[b]thiophene Hydrochloride], the “Serum Cholest. % Dec. (decrease versus ovariectomized controls)” value in the data set with Serum cholesterol (setting [1]) was -27.6%; in the data set with Serum cholesterol (1.0 mg/kg PO) it was 19.2%; with Serum cholesterol (10.0 mg/kg PO), 61.6%.

For the compound `CCCc1sc2ccccc2c1Oc1ccc(OCCN2CCCCC2)cc1.Cl` [Example 7, 3-[4-[2-(1-Piperidinyl)ethoxy]phenoxy]-2-propylbenzo[b]thiophene Hydrochloride], the “Serum Cholest. % Dec. (decrease versus ovariectomized controls)” value is -11.1% with Serum cholesterol (setting [1]), 41.2% with Serum cholesterol (1.0 mg/kg PO) and 46.6% with Serum cholesterol (10.0 mg/kg PO).

Take `Cl.c1ccc2c(Oc3ccc(OCCN4CCCCC4)cc3)c(C3CCCCC3)sc2c1` [Example 11, 3-[4-[2-(1-Piperidinyl)ethoxy]phenoxy]-2-cyclohexylbenzo[b]thiophene Hydrochloride]: the “Serum Cholest. % Dec. (decrease versus ovariectomized controls)” value in the data set with Serum cholesterol (setting [1]) is given as 55.8%; with Serum cholesterol (1.0 mg/kg PO) it was 58.9%; in the data set on Serum cholesterol (10.0 mg/kg PO), 50.2%.

The record behind these values is patent US5985897A, “Benzothiphene compounds, intermediates, compositions, and methods” (priority 1997, dated 1999).
